{"source": "paper PMC6425950", "about": "(Bioorganic & medicinal chemistry, 2019)"}
{"tested_on": "HCV genotype 1b RNA replication in Huh-7 cells (subgenomic HCV replicon)", "experiment": "HCV subgenomic replicon assay, inhibition of HCV RNA replication", "format": "cell-based, Hepatitis C virus", "conditions": "HCV genotype 1b replicon, Huh-7 cells", "units": {"anti-HCV activity: none at concentration up to": "µM"}}
{"smiles": "Nc1nc2c(ncn2[C@@H]2O[C@H](CO)[C@@H](O)[C@@]2(F)Cl)c(=O)[nH]1", "note": "[Compound 48, 2-Amino-9-((2R,3R,4R,5R)-3-chloro-3-fluoro-4-hydroxy-5-(hydroxymethyl)tetrahydrofuran-2-yl)-1,9-dihydro-6H-purin-6-one]", "anti-HCV activity: none at concentration up to": "> 10"}
{"smiles": "Nc1nc2c(ncn2[C@@H]2O[C@H](CO)[C@@H](O)[C@@]2(F)Br)c(=O)[nH]1", "note": "[Compound 49, 2-amino-9-((2R,3R,4R,5R)-3-bromo-3-fluoro-4-hydroxy-5-(hydroxymethyl)tetrahydrofuran-2-yl)-1,9-dihydro-6H-purin-6-one]", "anti-HCV activity: none at concentration up to": "> 10"}
{"smiles": "CC(C)OC(=O)[C@H](C)NP(=O)(OC[C@H]1O[C@@H](n2cnc3c(=O)[nH]c(N)nc32)[C@](F)(Cl)[C@@H]1O)Oc1ccccc1", "note": "(stereo partly drawn) [Compound 50, Isopropyl ((((2R,3R,4R,5R)-5-(2-amino-6-oxo-1,6-dihydro-9H-purin-9-yl)-4-chloro-4-fluoro-3-hydroxytetrahydrofuran-2-yl)methoxy)(phenoxy)phosphoryl)-L-alaninate]", "anti-HCV activity: none at concentration up to": "> 10"}
{"smiles": "CC(C)OC(=O)[C@H](C)N[P@](=O)(OC[C@H]1O[C@@H](n2cnc3c(=O)[nH]c(N)nc32)[C@](F)(Br)[C@@H]1O)Oc1ccccc1", "note": "[Compound 51, Isopropyl ((((2R,3R,4R,5R)-5-(2-amino-6-oxo-1,6-dihydro-9H-purin-9-yl)-4-bromo-4-fluoro-3-hydroxytetrahydrofuran-2-yl)methoxy)(phenoxy)phosphoryl)-L-alaninate]", "anti-HCV activity: none at concentration up to": "> 10"}
{"tested_on": "HCV genotype 1b RNA replication in Huh-7 cells (subgenomic HCV replicon)", "experiment": "HCV subgenomic replicon assay, inhibition of HCV RNA replication", "format": "cell-based, Hepatitis C virus", "conditions": "HCV replicon; statement in conclusion"}
{"smiles": "CC(C)OC(=O)[C@H](C)NP(=O)(OC[C@H]1O[C@@H](n2ccc(=O)[nH]c2=O)[C@](F)(Cl)[C@@H]1O)Oc1ccccc1", "note": "(stereo partly drawn) [Compound 19, Isopropyl ((((2R,3R,4R,5R)-4-chloro-5-(2,4-dioxo-3,4-dihydropyrimidin-1(2H)-yl)-4-fluoro-3-hydroxytetrahydrofuran-2-yl)methoxy)(phenoxy)phosphoryl)-L-alaninate]", "anti-HCV activity (in words)": "low to sub-micromolar range"}
{"smiles": "CC(C)OC(=O)[C@H](C)NP(=O)(OC[C@H]1O[C@@H](n2ccc(=O)[nH]c2=O)[C@](F)(Br)[C@@H]1O)Oc1ccccc1", "note": "(stereo partly drawn) [Compound 20, Isopropyl ((((2R,3R,4R,5R)-4-bromo-5-(2,4-dioxo-3,4-dihydropyrimidin-1(2H)-yl)-4-fluoro-3-hydroxytetrahydrofuran-2-yl)methoxy)(phenoxy)phosphoryl)-L-alaninate]", "anti-HCV activity (in words)": "low to sub-micromolar range"}
{"smiles": "Nc1ccn([C@@H]2O[C@H](CO)[C@@H](O)[C@@]2(F)Br)c(=O)n1", "note": "[Compound 27, 4-Amino-1-((2R,3R,4R, 5R)-3-bromo-3-fluoro-4-hydroxy-5-(hydroxymethyl)tetrahydrofuran-2-yl)pyrimidin-2(lH)-one]", "anti-HCV activity (in words)": "low to sub-micromolar range"}
{"smiles": "CC(C)OC(=O)[C@H](C)NP(=O)(OC[C@H]1O[C@@H](n2ccc(N)nc2=O)[C@](F)(Br)[C@@H]1O)Oc1ccccc1", "note": "(stereo partly drawn) [Compound 32, Isopropyl ((((2R,3R,4R,5R)-5-(4-amino-2-oxopyrimidin-1(2H)-yl)-4-bromo-4-fluoro-3-hydroxytetrahydrofuran-2-yl)methoxy)(phenoxy)phosphoryl)-L-alaninate]", "anti-HCV activity (in words)": "low to sub-micromolar range"}
{"smiles": "CC(C)OC(=O)[C@H](C)NP(=O)(OC[C@H]1O[C@@H](n2ccc(N)nc2=O)[C@](F)(Cl)[C@@H]1O)Oc1ccccc1", "note": "(stereo partly drawn) [Compound 35, Isopropyl ((((2R,3R,4R,5R)-5-(4-amino-2-oxopyrimidin-1(2H)-yl)-4-chloro-4-fluoro-3-hydroxytetrahydrofuran-2-yl)methoxy) (phenoxy)phosphoryl)-L-alaninate]", "anti-HCV activity (in words)": "low to sub-micromolar range"}
{"smiles": "CC(C)OC(=O)[C@H](C)NP(=O)(OC[C@H]1O[C@@H](n2cnc3c(N)ncnc32)[C@](F)(Cl)[C@@H]1O)Oc1ccccc1", "note": "(stereo partly drawn) [Compound 42, Isopropyl ((((2R,3R,4R,5R)-5-(6-amino-9H-purin-9-yl)-4-chloro-4-fluoro-3-hydroxytetrahydrofuran-2-yl)methoxy) (phenoxy)phosphoryl)-L-alaninate]", "anti-HCV activity (in words)": "low to sub-micromolar range"}
{"tested_on": "HCV genotype 1b RNA replication in Huh-7 cells (subgenomic HCV replicon)", "experiment": "HCV subgenomic replicon assay, inhibition of HCV RNA replication", "format": "cell-based, Hepatitis C virus", "conditions": "Hepatitis C virus, GETYPE1B, Huh-7, read-out: Anti-HCV activity EC90", "units": {"EC90": "µM"}}
{"smiles": "Nc1ccn([C@@H]2O[C@H](CO)[C@@H](O)[C@@]2(F)Cl)c(=O)n1", "note": "[Compound 26, 4-Amino-1-((2R,3R,4R,5R)-3-chloro-3-fluoro-4-hydroxy-5-(hydroxymethyl)tetrahydrofuran-2-yl)pyrimidin-2(1H)-one]", "EC90": "> 10"}
{"smiles": "Nc1ncnc2c1ncn2[C@@H]1O[C@H](CO)[C@@H](O)[C@@]1(F)Cl", "note": "[Compound 40, (2R, 3R, 4R, 5R)-5-(6-Amino-9H-purin-9-yl)-4-chloro-4-fluoro-2-(hydroxymethyl)tetrahydrofuran-3-ol]", "EC90": "> 10"}
{"smiles": "Nc1ncnc2c1ncn2[C@@H]1O[C@H](CO)[C@@H](O)[C@@]1(F)Br", "note": "[Compound 41, (2R, 3R, 4R, 5R)-5-(6-Amino-9H-purin-9-yl)-4-bromo-4-fluoro-2-(hydroxymethyl)tetrahydrofuran-3-ol]", "EC90": "> 10"}
{"smiles": "CC(C)OC(=O)[C@H](C)NP(=O)(OC[C@H]1O[C@@H](n2cnc3c(N)ncnc32)[C@](F)(Br)[C@@H]1O)Oc1ccccc1", "note": "(stereo partly drawn) [Compound 43, Isopropyl ((((2R,3R,4R,5R)-5-(6-amino-9H-purin-9-yl)-4-bromo-4-fluoro-3-hydroxytetrahydrofuran-2-yl)methoxy)(phenoxy)phosphoryl)-L-alaninate]", "EC90": "> 10"}
{"smiles": "Nc1nc2c(ncn2[C@@H]2O[C@H](CO)[C@@H](O)[C@@]2(F)Br)c(=O)[nH]1", "note": "[Compound 49, 2-amino-9-((2R,3R,4R,5R)-3-bromo-3-fluoro-4-hydroxy-5-(hydroxymethyl)tetrahydrofuran-2-yl)-1,9-dihydro-6H-purin-6-one]", "EC90": "> 10"}
{"smiles": "CC(C)OC(=O)[C@H](C)NP(=O)(OC[C@H]1O[C@@H](n2cnc3c(=O)[nH]c(N)nc32)[C@](F)(Cl)[C@@H]1O)Oc1ccccc1", "note": "(stereo partly drawn) [Compound 50, Isopropyl ((((2R,3R,4R,5R)-5-(2-amino-6-oxo-1,6-dihydro-9H-purin-9-yl)-4-chloro-4-fluoro-3-hydroxytetrahydrofuran-2-yl)methoxy)(phenoxy)phosphoryl)-L-alaninate]", "EC90": "> 10"}
